Data reported in EPA's ToxRefDB 2.

How the values were obtained:
rat [1] = conditions: Developmental neurotoxicity study; long evans; Injection; Subcutaneous; dose end: 90 PND; group: cannot be grouped; reproductive / reproductive performance / sex ratio / sex ratio (% male)
mouse [2] = conditions: Carcinogenicity; cd1; Oral; Feed; dose end: 18 month; group: systemic; systemic / organ weight / liver / nos + systemic / pathology microscopic / liver / deformity + systemic / pathology microscopic / liver / …
rat [3] = conditions: Multigenerational reproductive toxicity study, other, Oral, Feed, dose end: 2 generation
dog [4] = conditions: Chronic toxicity, beagle, Oral, Feed, dose end: 26 week, group: systemic
dog [5] = conditions: Chronic toxicity, beagle, Oral, Feed, dose end: 52 week, group: systemic
mouse [6] = conditions: Subchronic oral toxicity in rodents, cd1, Feed, dose end: 90 day, group: systemic, systemic / organ weight / liver / absolute + systemic / organ weight / liver / relative to body weight + systemic / organ weight / liver / …
mouse [7] = conditions: Carcinogenicity; cd1; Oral; Feed; dose end: 18 month; group: systemic; systemic / pathology microscopic / liver / hypertrophy
rat [8] = conditions: Combined chronic toxicity/carcinogenicity, sprague dawley, Oral, Feed, dose end: 104 week, group: systemic
rat [9] = conditions: Carcinogenicity, fischer, Oral, Water, dose end: 104 week, group: systemic
mouse [10] = conditions: Carcinogenicity; other; Injection; Intraperitoneal; dose end: 50 week; group: systemic; systemic / pathology microscopic / lung / adenoma + systemic / pathology microscopic / lymph node / leukemia granulocytic + systemic / …
rat [11] = conditions: Sub-acute repeat dose toxicity, fischer, Oral, Feed, dose end: 14 day, group: systemic
rat [12] = conditions: Subchronic oral toxicity in rodents, fischer, Feed, dose end: 13 week, group: systemic
mouse [13] = conditions: Multigenerational reproductive toxicity study, cd1, Oral, Feed, dose end: 2 generation
rat [14] = conditions: Carcinogenicity, fischer, Oral, Feed, dose end: 103 week, group: systemic
mouse [15] = conditions: Carcinogenicity, b6c3f1, Oral, Feed, dose end: 103 week, group: systemic
mouse [16] = conditions: Subchronic oral toxicity in rodents, b6c3f1, Feed, dose end: 13 week, group: systemic
[17] = group: offspring, systemic / in life observation / body weight / offspring (pup) weight + systemic / in life observation / body weight / offspring (pup) …
[18] = group: parental, systemic / organ weight / liver / relative to body weight
[19] = systemic / pathology microscopic / prostate / atrophy + systemic / pathology microscopic / testes / atrophy
[20] = systemic / pathology microscopic / prostate / atrophy + systemic / pathology microscopic / testes / atrophy + systemic / pathology …
[21] = systemic / in life observation / body weight / body weight + systemic / in life observation / body weight / body weight gain + systemic / …
[22] = systemic / clinical chemistry / cholesterol / cholesterol + systemic / in life observation / body weight / body weight gain + systemic / …
[23] = systemic / in life observation / body weight / body weight gain
[24] = systemic / in life observation / body weight / body weight gain + systemic / in life observation / water consumption / water consumption + …
[25] = systemic / in life observation / water consumption / water consumption
[26] = systemic / in life observation / food consumption / food consumption
[27] = systemic / in life observation / food consumption / food consumption + systemic / in life observation / body weight / body weight
[28] = systemic / organ weight / kidney / relative to body weight + systemic / organ weight / liver / relative to body weight
[29] = group: offspring, systemic / in life observation / body weight / offspring (pup) weight
[30] = group: parental, systemic / in life observation / body weight / body weight + systemic / organ weight / brain / relative to body weight + systemic / organ …
[31] = group: reproductive, reproductive / offspring survival early / birth index / birth index + reproductive / offspring survival early / live fetuses / live fetuses
[32] = systemic / pathology microscopic / kidney / nephropathy
[33] = systemic / pathology microscopic / kidney / nephropathy + systemic / pathology microscopic / kidney / hyperplasia + systemic / pathology …
[34] = systemic / in life observation / body weight / body weight + systemic / pathology microscopic / thyroid gland / hyperplasia
[35] = systemic / in life observation / body weight / body weight + systemic / pathology microscopic / liver / mineralization + systemic / …

Question: For CCN(CC)CC(=O)Nc1c(C)cccc1C [Lidocaine], which LEL (rat [1]) is on record?
Answer: 6 mg/kg/day

Question: What about the LOAEL (rat [1]) of the same molecule?
Answer: > 9 mg/kg/day

Question: And the NEL (rat [1])?
Answer: 3 mg/kg/day

Question: What about the NOAEL (rat [1]) of the same molecule?
Answer: ≥ 9 mg/kg/day

Question: How did the LEL (mouse [2]) turn out when CC1OC(C)OC(C)OC(C)O1 (stereo unspecified) [Metaldehyde acetaldehyde tetramer] was run?
Answer: 135 mg/kg/day

Question: And the LOAEL (mouse [2])?
Answer: 135 mg/kg/day

Question: And the NEL (mouse [2])?
Answer: < 135 mg/kg/day

Question: And the NOAEL (mouse [2])?
Answer: < 135 mg/kg/day

Question: And the LEL (rat [3]; [17])?
Answer: 134 mg/kg/day

Question: And the LOAEL (rat [3]; [17])?
Answer: 134 mg/kg/day

Question: And the NEL (rat [3]; [17])?
Answer: 64.9 mg/kg/day

Question: What about the NOAEL (rat [3]; [17]) of the same molecule?
Answer: 64.9 mg/kg/day

Question: And the LEL (rat [3]; group: parental, systemic / in life observation / body weight / body weight + systemic / in life observation / body weight / body weight gain)?
Answer: 80.5 mg/kg/day

Question: And the NEL (rat [3]; group: parental, systemic / in life observation / body weight / body weight + systemic / in life observation / body weight / body weight gain + systemic / in…)?
Answer: 4.03 mg/kg/day

Question: What about the LOAEL (rat [3]; [18]) of the same molecule?
Answer: 134 mg/kg/day

Question: What about the NOAEL (rat [3]; [18]) of the same molecule?
Answer: 64.9 mg/kg/day

Question: What about the LEL (dog [4]; [19]) of the same molecule?
Answer: 60 mg/kg/day

Question: What about the LOAEL (dog [4]; [19]) of the same molecule?
Answer: 60 mg/kg/day

Question: What about the NEL (dog [4]; [20]) of the same molecule?
Answer: 20 mg/kg/day

Question: And the NOAEL (dog [4]; [20])?
Answer: 20 mg/kg/day

Question: What about the LEL (dog [5]; [21]) of the same molecule?
Answer: 10 mg/kg/day

Question: And the NEL (dog [5]; [21])?
Answer: < 10 mg/kg/day

Question: What about the NOAEL (dog [5]; systemic / in life observation / mortality / mortality + systemic / clinical chemistry / alkaline phosphatase (alp/alk) / alkaline …) of the same molecule?
Answer: 10 mg/kg/day

Question: And the LOAEL (dog [5]; systemic / in life observation / mortality / mortality + systemic / pathology microscopic / prostate / atrophy + systemic / pathology …)?
Answer: 30 mg/kg/day

Question: What about the LEL (mouse [6]) of the same molecule?
Answer: 178 mg/kg/day

Question: What about the LOAEL (mouse [6]) of the same molecule?
Answer: 178 mg/kg/day

Question: And the NEL (mouse [6])?
Answer: 54 mg/kg/day

Question: What about the NOAEL (mouse [6]) of the same molecule?
Answer: 54 mg/kg/day

Question: What about the LEL (mouse [7]) of the same molecule?
Answer: 48.9 mg/kg/day

Question: And the LOAEL (mouse [7])?
Answer: 48.9 mg/kg/day

Question: What about the NEL (mouse [7]) of the same molecule?
Answer: 15.9 mg/kg/day

Question: What about the NOAEL (mouse [7]) of the same molecule?
Answer: 15.9 mg/kg/day

Question: What about the LOAEL (rat [8]; [22]) of the same molecule?
Answer: 44 mg/kg/day

Question: What about the NOAEL (rat [8]; [22]) of the same molecule?
Answer: 2 mg/kg/day

Question: What about the LEL (rat [8]; [23]) of the same molecule?
Answer: 3 mg/kg/day

Question: And the NEL (rat [8]; [23])?
Answer: < 3 mg/kg/day

Question: O=c1[nH]cc(F)c(=O)[nH]1 [5-Fluorouracil] was tested. Which LOAEL (rat [9]; [24]) did it give?
Answer: > 7.42 mg/kg/day

Question: What about the NOAEL (rat [9]; [24]) of the same molecule?
Answer: ≥ 7.42 mg/kg/day

Question: And the LEL (rat [9]; [25])?
Answer: 3.85 mg/kg/day

Question: And the NEL (rat [9]; [25])?
Answer: < 3.85 mg/kg/day

Question: What about the LEL (mouse [10]) of the same molecule?
Answer: 30 mg/kg/day

Question: What about the LOAEL (mouse [10]) of the same molecule?
Answer: > 30 mg/kg/day

Question: And the NEL (mouse [10])?
Answer: < 30 mg/kg/day

Question: What about the NOAEL (mouse [10]) of the same molecule?
Answer: ≥ 30 mg/kg/day

Question: How did the NEL (rat [11]; [26]) turn out when CC(=O)Nc1ccc(O)cc1 [Acetaminophen] was run?
Answer: 310 mg/kg/day

Question: And the NOAEL (rat [11]; [26])?
Answer: 310 mg/kg/day

Question: What about the LEL (rat [11]; [27]) of the same molecule?
Answer: 625 mg/kg/day

Question: What about the LOAEL (rat [11]; [27]) of the same molecule?
Answer: 625 mg/kg/day

Question: And the NOAEL (rat [12]; systemic / in life observation / body weight / body weight + systemic / in life observation / clinical signs / reduced body size + systemic…)?
Answer: 310 mg/kg/day

Question: And the LOAEL (rat [12]; systemic / in life observation / body weight / body weight + systemic / pathology microscopic / liver / cytomegaly + systemic / pathology …)?
Answer: 625 mg/kg/day

Question: And the LEL (rat [12]; [28])?
Answer: 40 mg/kg/day

Question: What about the NEL (rat [12]; [28]) of the same molecule?
Answer: < 40 mg/kg/day

Question: What about the LEL (mouse [13]; [29]) of the same molecule?
Answer: 357 mg/kg/day

Question: And the LOAEL (mouse [13]; [29])?
Answer: > 1430 mg/kg/day

Question: What about the NEL (mouse [13]; [29]) of the same molecule?
Answer: < 357 mg/kg/day

Question: And the NOAEL (mouse [13]; [29])?
Answer: ≥ 1430 mg/kg/day

Question: And the LEL (mouse [13]; [30])?
Answer: 1430 mg/kg/day

Question: What about the LOAEL (mouse [13]; [30]) of the same molecule?
Answer: > 1430 mg/kg/day

Question: And the NEL (mouse [13]; [30])?
Answer: 715 mg/kg/day

Question: And the NOAEL (mouse [13]; [30])?
Answer: ≥ 1430 mg/kg/day

Question: And the NEL (mouse [13]; group: reproductive, reproductive / offspring survival early / birth index / birth index)?
Answer: 715 mg/kg/day

Question: What about the LEL (mouse [13]; [31]) of the same molecule?
Answer: 1430 mg/kg/day

Question: What about the LOAEL (mouse [13]; [31]) of the same molecule?
Answer: > 1430 mg/kg/day

Question: What about the NOAEL (mouse [13]; [31]) of the same molecule?
Answer: ≥ 1430 mg/kg/day

Question: And the LOAEL (rat [14]; [32])?
Answer: 30 mg/kg/day

Question: What about the NOAEL (rat [14]; [32]) of the same molecule?
Answer: < 30 mg/kg/day

Question: And the LEL (rat [14]; [33])?
Answer: 30 mg/kg/day

Question: And the NEL (rat [14]; [33])?
Answer: < 30 mg/kg/day

Question: What about the LOAEL (mouse [15]; systemic / in life observation / body weight / body weight) of the same molecule?
Answer: 1000 mg/kg/day

Question: And the LEL (mouse [15]; [34])?
Answer: 90 mg/kg/day

Question: What about the NEL (mouse [15]; [34]) of the same molecule?
Answer: < 90 mg/kg/day

Question: And the NOAEL (mouse [15]; [34])?
Answer: 450 mg/kg/day

Question: What about the LOAEL (mouse [16]; [35]) of the same molecule?
Answer: 1880 mg/kg/day

Question: And the NEL (mouse [16]; [35])?
Answer: 480 mg/kg/day

Question: What about the NOAEL (mouse [16]; [35]) of the same molecule?
Answer: 930 mg/kg/day

Question: And the LEL (mouse [16]; systemic / pathology microscopic / liver / cytomegaly + systemic / pathology microscopic / liver / karyomegaly + systemic / pathology …)?
Answer: 930 mg/kg/day
